From patent US20020086027A1, “Composition and method for enhancing immunological memory response” (priority 1998, published 2002)
“Also recorded” adds a separate entry of the source.

Assays:
[1] = system: allo-specific precursor T cells; assay: Limiting dilution analysis of clonal responder frequency and burst size; format: cell-based, human
From the text: Limiting dilution analyses were used to calculate the number of transplantation antigen-specific memory T cells in cultures primed in the presence or absence of POX. Multiple replicate wells of titrated numbers of primed responders were restimulated. the numbers of wells showing proliferative responses at each responder dose were used to calculate the frequency of responding memory t cells in the primed populations. estimates of the extent of proliferation in wells effectively containing single responder cells served as a measure of clonal burst size. […] To determine the frequence of all-specific precursor cells in the various responder populations, titrating numbers (from 10,000 to 200 per well) of variously primed cells were added to a constant number (1×10^5 per well) of g-irradiated stimulator PBMCs. Of the 48 wells plated per responder dose, those wells showing a response at least twice that of the background value were scored positive. The responder frequency was calculated by taking the number of negative wells into account. The response was considered clonal at the responder cell number where the proportion of positively responding wells was less than 37%. At responder cell concentrations showing clonal frequencies, the average cpm values of responding (versus non-responding) wells were used as an estimate of the average clonal burst size of single responding T cells.

[2] = system: mercuric chloride-induced arthritis; conditions: rats; cited from earlier work
[3] = system: experimental autoimmune encephalomyelitis; conditions: rat, in vivo; cited from earlier work
T cell lines = assay: Intracellular cAMP levels in T cell lines; format: cell-based; conditions: preliminary experiments
From the text: Several effects of POX on T cell signaling pathways have been reported. […] A major consequence of inhibition of phosphodiesterase is an increase in the levels of intracellular cAMP. […] This raises the possibility that although dbcAMP mimics POX in its effects on T cell priming, the precise molecular pathways involved may differ.

[4] = orally administered; cited from earlier work
human T cells = assay: Secondary (recall) alloproliferative response of T cells primed in vitro; format: cell-based; conditions: for memory/recall proliferative response: primed with allo-PBMCs in presence of 100 ug/ml drug, restimulated without drug
Method: In this system, we have used responses to first exposure as an indication of primary responses. When cells stimulated in this fashion are rested in culture and then restimulated with the same stimulator PBMCs, the 'recall' response measured are taken as an indication of immune memory. Proliferation is measured by the incorporation of radioactive tritiated thymidine in dividing cells. For priming, responder and stimulator cells mixed in 2-5 ml cultures in a ratio of 1:1-3:1. After five days of incubation, the cells were harvested, counted and viable cells used as primed responders with g-irradiated allostimulators in secondary alloproliferation assays, which were pulsed with (H^3)-thymidine after four days for estimating cell proliferation. For flow cytometric analysis, cells were separated from debris by Ficoll-Paque gradient centrifugation before staining. […] Sigma Chemical Co.) at room temperature for 20 minutes, washed extensively and used. For priming in vitro, responder PBMCs were incubated for 72 or 144 h at a ratio of either 1:1 or 2:1 respectively, with stimulator PBMCs. Where appropriate, CsA. Aph. and/or […] were added at the concentrations indicated, of PFA-fixed PBMCs were used instead.

CD25+ CD4 T cells = assay: Flow cytometry of CD25 and Fas (CD95) on primed cells; format: cell-based, human
Method: For analysis of cell surface markers, primed cell populations separated on Ficoll-Paque gradients were used. […] Briefly, 1-3×10^5 cells per well were stained with primary antibodies at 4° C., followed by appropriately labeled secondary reagents if required. Samples were analyzed using a Bryte flow cytometer (bio-Rad, Hemel Hampstead, UK). Antibodies to the T cell markers CD3 (OKT3), CD4 (OKT4), and to the activation markers CD25 and Fas (CD95) were used for staining. To detect apoptosis using propidium iodide (PI, Sigma Chemical Co.), antibody-stained cells were fixed and permeabilized with 70% ethanol, washed, and PI […] added just before cytometric analysis. Data were analyzed using FlowJo software (Treestar, San Jose, Calif.).
The phenotype of CD4 T cells activated during priming in vitro was examined next using various markers associated with T cell activation. Antibodies against CD25 (IL-2Ra), CD26, CD45RO, CD69 and gp240 were used, but except for CD25, none of the other markers gave consistent and reliable results (data not shown). CD25 expression on CD4 T cells in the responder populations was examined in a two-color flow cytometric analysis at two separate time points,—at the end of six days of priming and after two further rest days in culture after washing and resuspension in resh medium without any stimuli. Most CD25-expressing cells in the primed cultures were CD4 T cells. […] The frequency of CD25 expression increased in the PBMC-primed responders (FIG. 17B) and this percentage was lower if POX (100 μg/ml) was present during priming (FIG. 17C). […] Similar data were observed if dbcAMP was present during priming (data not shown). It can be seen that the proportion of CD25* cells was reproducibly lower if POX was present during priming with allo-PBMCs. However, after 48 hours of rest in culture, the frequency of CD25* cells declined in the populations primed in the absence of POX, while it went up in the group primed under POX cover.

## CC(=O)CCCCn1c(=O)c2c(ncn2C)n(C)c1=O [POX, pentoxifylline]
[1]; drug present during priming (POX 100 ug/ml)
  frequency of alloreactive responder (memory) T cells: enhanced; also recorded: significantly enhances
[1]; drug-treated vs untreated during priming
  clonal burst size (average clonal proliferative response): without altering; also recorded: not significantly different
[2]
  protection against arthritis: significant protection
[3]
  protection against EAE: significant protection
T cell lines
  intracellular cAMP levels: does not increase
[4]
  LD50: about 1385 milligrams per kilogram body weight
Human T cells; 100 μg/ml, no stimulators during incubation
  subsequent alloproliferative response of unprimed cells incubated with drug alone: does not enhance
Human T cells; lower doses of Trental during priming
  enhancing effect on the recall response: decreases
Human T cells; primed with PF-fixed PBMCs in presence of POX 100 ug/ml
  secondary response to unfixed PBMCs: enhanced
Human T cells; primed with Trental plus Aph vs Aph alone
  recall response: still higher
Human T cells
  memory/recall proliferative response: much improved
Human T cells; listed as Trental
  memory/recall proliferative response: enhanced
CD25+ CD4 T cells; after two further rest days in culture without stimuli
  frequency of CD25 expression: increased frequency
CD25+ CD4 T cells; at end of six days of priming, POX 100 μg/ml
  frequency of CD25 expression: lower
CD25+ CD4 T cells; presence vs absence of POX during priming
  frequency and level of Fas expression in CD25+ population: unchanged
